The numbers were not newly measured in patent publication US12390417B2, “Praziquantel formulations” (Villya LLC, priority 2020, dated 2025), which cites them from elsewhere.

In brackets after ≈: the same amount, converted by molar mass.

The conditions of this data set: in water; according to the Merck Index.

Broadly, the solubility is how much of the substance goes into solution per volume. Take `O=C(C1CCCCC1)N1CC(=O)N2CCc3ccccc3C2C1` (racemic) [Praziquantel, (RS)-2-(Cyclohexylcarbonyl)-1,2,3,6,7,11b-hexahydro-4H-pyrazino[2,1-a]isoquinolin-4-one]: the solubility is 400 µg/mL (≈ 1280 µM).
